From PubChem BioAssay AID2060900 (Molecular Pharmacology Branch, DTP, NCI, 2025)
Several values for one entry are separate records, joined by “and”; a condition that tells them apart may be missing. Equal entries are not always repeated.

System: 521955-158-R2-J5-PDC complex spheroids, viability
Test: Anticancer human tumor 521955-158-R2-J5-PDC patient-derived pancreatic carcinoma cell line growth inhibition [RAS]
Details: for viability, T/C: stronger effect = lower value
How it was run: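 Tumour cells grown as complex spheroids with HUVEC endothelial cells and mesenchymal stem cells, treated with RAS pathway inhibitor combinations. Each agent spans half-log steps from near clinical Cmax, or 10 microM where Cmax is unknown.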
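Further: compound exposure lasted seven days before the viability read.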
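Wherever viability, T/C is given: spheroids also contain HUVEC endothelial cells and mesenchymal stem cells as stroma.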

## CC1(O)CCCC1n1c(=O)c(C(F)F)cc2cnc(NC3CCN(S(C)(=O)=O)CC3)nc21 (stereo unspecified) + C=CC(=O)N1CCN(c2nc(OCC3CCCN3C)nc3c(F)c(-c4nc(N)cc(C)c4C(F)(F)F)c(Cl)cc23)C(C)C1
Curve of first compound, second compound 0.00316 µM
  IC50: 5.89 µM
Curve of first compound, second compound 0.01 µM
  IC50: 6.18 µM
Curve of first compound, second compound 0.0316 µM
  IC50: 6.07 µM
Curve of first compound, second compound 0.1 µM
  IC50: 6.24 µM
Curve of first compound, second compound 0.316 µM
  IC50: 6.02 µM
Curve of first compound, second compound 1 µM
  IC50: 6.06 µM
Second compound 0.00316 µM, first compound 0.0316 µM
  viability, T/C: 93.1%
Second compound 0.00316 µM, first compound 0.1 µM
  viability, T/C: 83%
Second compound 0.00316 µM, first compound 0.316 µM
  viability, T/C: 81%
Second compound 0.00316 µM, first compound 1 µM
  viability, T/C: 80.9%
Second compound 0.00316 µM, first compound 3.16 µM
  viability, T/C: 121%
Second compound 0.00316 µM, first compound 10 µM
  viability, T/C: 14.4%
Second compound 0.01 µM, first compound 0.0316 µM
  viability, T/C: 85.9%
Second compound 0.01 µM, first compound 0.1 µM
  viability, T/C: 98%
Second compound 0.01 µM, first compound 0.316 µM
  viability, T/C: 78.6%
Second compound 0.01 µM, first compound 1 µM
  viability, T/C: 102%
Second compound 0.01 µM, first compound 3.16 µM
  viability, T/C: 112%
Second compound 0.01 µM, first compound 10 µM
  viability, T/C: 17.2%
Second compound 0.0316 µM, first compound 0.0316 µM
  viability, T/C: 87.7%
Second compound 0.0316 µM, first compound 0.1 µM
  viability, T/C: 121%
Second compound 0.0316 µM, first compound 0.316 µM
  viability, T/C: 80.2%
Second compound 0.0316 µM, first compound 1 µM
  viability, T/C: 96.4%
Second compound 0.0316 µM, first compound 3.16 µM
  viability, T/C: 108%
Second compound 0.0316 µM, first compound 10 µM
  viability, T/C: 12.7%
Second compound 0.1 µM, first compound 0.0316 µM
  viability, T/C: 135%
Second compound 0.1 µM, first compound 0.1 µM
  viability, T/C: 85.2%
Second compound 0.1 µM, first compound 0.316 µM
  viability, T/C: 75.2%
Second compound 0.1 µM, first compound 1 µM
  viability, T/C: 109%
Second compound 0.1 µM, first compound 3.16 µM
  viability, T/C: 111%
Second compound 0.1 µM, first compound 10 µM
  viability, T/C: 13%
Second compound 0.316 µM, first compound 0.0316 µM
  viability, T/C: 123%
Second compound 0.316 µM, first compound 0.1 µM
  viability, T/C: 79.3%
Second compound 0.316 µM, first compound 0.316 µM
  viability, T/C: 78.3%
Second compound 0.316 µM, first compound 1 µM
  viability, T/C: 89.8%
Second compound 0.316 µM, first compound 3.16 µM
  viability, T/C: 116%
Second compound 0.316 µM, first compound 10 µM
  viability, T/C: 12.7%
Second compound 1 µM, first compound 0.0316 µM
  viability, T/C: 127%
Second compound 1 µM, first compound 0.1 µM
  viability, T/C: 89.1%
Second compound 1 µM, first compound 0.316 µM
  viability, T/C: 69.5%
Second compound 1 µM, first compound 1 µM
  viability, T/C: 84%
Second compound 1 µM, first compound 3.16 µM
  viability, T/C: 119%
Second compound 1 µM, first compound 10 µM
  viability, T/C: 13%

## Cc1nc(N2CCC3(CC2)COC(C)C3N)c(CO)nc1Sc1ccnc(N)c1Cl (stereo unspecified) + CCn1c(-c2cc(N3CCN(C)CC3)cnc2C(C)OC)c2c3cc(ccc31)-c1csc(n1)CC(NC(=O)C1CC1C)C(=O)N1CCCC(N1)C(=O)OCC(C)(C)C2
Curve of first compound, second compound 0.000949 µM
  IC50: < 0.0316 µM
Curve of first compound, second compound 0.003 µM
  IC50: < 0.0316 µM
Curve of first compound, second compound 0.00949 µM
  IC50: < 0.0316 µM
Curve of first compound, second compound 0.03 µM
  IC50: < 0.0316 µM
Curve of first compound, second compound 0.0949 µM
  IC50: < 0.0316 µM
Curve of first compound, second compound 0.3 µM
  IC50: < 0.0316 µM
Second compound 0.000949 µM, first compound 0.0316 µM
  viability, T/C: 39.5%
Second compound 0.000949 µM, first compound 0.1 µM
  viability, T/C: 31%
Second compound 0.000949 µM, first compound 0.316 µM
  viability, T/C: 32.7%
Second compound 0.000949 µM, first compound 1 µM
  viability, T/C: 39.2%
Second compound 0.000949 µM, first compound 3.16 µM
  viability, T/C: 36.4%
Second compound 0.000949 µM, first compound 10 µM
  viability, T/C: 33.3%
Second compound 0.003 µM, first compound 0.0316 µM
  viability, T/C: 36.2%
Second compound 0.003 µM, first compound 0.1 µM
  viability, T/C: 40.7%
Second compound 0.003 µM, first compound 0.316 µM
  viability, T/C: 35.3%
Second compound 0.003 µM, first compound 1 µM
  viability, T/C: 31.3%
Second compound 0.003 µM, first compound 3.16 µM
  viability, T/C: 23.8%
Second compound 0.003 µM, first compound 10 µM
  viability, T/C: 20.9%
Second compound 0.00949 µM, first compound 0.0316 µM
  viability, T/C: 27.4%
Second compound 0.00949 µM, first compound 0.1 µM
  viability, T/C: 32.1%
Second compound 0.00949 µM, first compound 0.316 µM
  viability, T/C: 25%
Second compound 0.00949 µM, first compound 1 µM
  viability, T/C: 18.3%
Second compound 0.00949 µM, first compound 3.16 µM
  viability, T/C: 18.7%
Second compound 0.00949 µM, first compound 10 µM
  viability, T/C: 10.8%
Second compound 0.03 µM, first compound 0.0316 µM
  viability, T/C: 15.9%
Second compound 0.03 µM, first compound 0.1 µM
  viability, T/C: 18.1%
Second compound 0.03 µM, first compound 0.316 µM
  viability, T/C: 12.8%
Second compound 0.03 µM, first compound 1 µM
  viability, T/C: 13.9%
Second compound 0.03 µM, first compound 3.16 µM
  viability, T/C: 11.8%
Second compound 0.03 µM, first compound 10 µM
  viability, T/C: 11.7%
Second compound 0.0949 µM, first compound 0.0316 µM
  viability, T/C: 14.3%
Second compound 0.0949 µM, first compound 0.1 µM
  viability, T/C: 11%
Second compound 0.0949 µM, first compound 0.316 µM
  viability, T/C: 15.1%
Second compound 0.0949 µM, first compound 1 µM
  viability, T/C: 7.6%
Second compound 0.0949 µM, first compound 3.16 µM
  viability, T/C: 11.3%
Second compound 0.0949 µM, first compound 10 µM
  viability, T/C: 10.7%
Second compound 0.3 µM, first compound 0.0316 µM
  viability, T/C: 9.07%
Second compound 0.3 µM, first compound 0.1 µM
  viability, T/C: 8.16%
Second compound 0.3 µM, first compound 0.316 µM
  viability, T/C: 8.08%
Second compound 0.3 µM, first compound 1 µM
  viability, T/C: 6.34%
Second compound 0.3 µM, first compound 3.16 µM
  viability, T/C: 7.5%
Second compound 0.3 µM, first compound 10 µM
  viability, T/C: 9.18%

## CCn1c(-c2cc(N3CCN(C)CC3)cnc2C(C)OC)c2c3cc(ccc31)-c1csc(n1)CC(NC(=O)C1CC1C)C(=O)N1CCCC(N1)C(=O)OCC(C)(C)C2 (stereo unspecified)
Compound 0.000949 µM
  viability, T/C: 46.5% [middle of 8 runs]
Compound 0.003 µM
  viability, T/C: 40.6% [middle of 8 runs]
Compound 0.00949 µM
  viability, T/C: 37.5% [middle of 8 runs]
Compound 0.03 µM
  viability, T/C: 21.3% [middle of 8 runs]
Compound 0.0949 µM
  viability, T/C: 12.8% [middle of 8 runs]
Compound 0.3 µM
  viability, T/C: 10.2% [middle of 8 runs]
Compound alone, run of 05/20/2024
  IC50: < 0.000949 µM and 0.00104 µM
